Measurements from US4080467A, “Pharmaceutical compositions comprising 1,3-dithiolan-2-ylidene malonate derivatives” (Nihon Nohyaku Co., Ltd., priority 1976, dated 1978).

How the values were obtained:
[1] = test system: Acute Liver Damage associated with Centrilobular Necrosis (carbon tetrachloride); assay: Protective effect on acute liver damage associated with centrilobular necrosis (carbon tetrachloride model); format: in vivo, mice (four-week-old male, dd strain); settings: 250 mg/kg oral 6 h before CCl4, average of 5 to 6 mice; for p-GPT (plasma glutamic-pyruvic transaminase activity): 24 h after CCl4, values over 1,000 regarded as 1,000; for Liver Damage Index: 0 normal, 2 slightly recognized, 4 clearly observable damage, 6 heavy damage
From the text: Carbon tetrachloride (CCl4) administration induces centrilobular necrosis of the liver associated with loss of diphosphopyridine nucleotide, hepatic glycogen, coenzyme A and increase in neutral fat. Release of several enzymes from the hepatocytes, and increases of enzyme activities in the plasma are recognized as the result of the damage of the liver. A suitable means for evaluating the degree of damage induced by CCl4 or the degree of protection afforded by drugs is to study the plasma glutamic-pyruvic transaminase (p-GPT) activity.
Method: The test compounds were dissolved or suspended in olive oil and administered orally at the dose of 250 mg/kg to the mice (Four-week-old male mice-dd strain). After 6 hours, CCl4 was administered orally (0.05 ml/kg as olive oil solution). Animals were killed 24 hours after CCl4 administration, and the liver was grossly observed. The plasma was obtained by centrifugation. Activities of p-GPT were determined by the method of Reitman and Frankel and expressed in Karmen units.
Score for liver damage was as follows: […]
4 Clearly observable damage
Each figure indicates average of 5 to 6 mice. Values of p-GPT over 1,000 Karmen unit regarded as 1,000 for calculation of average for convenience.

[2] = test system: fatty liver (carbon tetrachloride); assay: Therapeutic effect on fatty liver (carbon tetrachloride model); format: in vivo, male rat (35 week-old, SD strain); settings: for Degree of fatty liver (histopathological examination): 10 days, one symbol per animal
Procedure: Carbon tetrachloride also induces fatty liver, but the picture of disease differs from the case of ethionine-induced fatty liver. Carbon tetrachloride is generally considered to damage microsome and thereby to inhibit protein synthesis and induce fatty liver.
Carbon tetrachloride was subscutaneously administered to 35 week-old male rat (SD strain) for 4 days at the dose of 1 ml/kg. The treated animals were left for 3 days after the last administration to maximize the manifestation of fatty liver.
Administration of the compounds of this invention was commenced on the fourth day after the administration of carbon tetrachloride was completed. It was orally given everyday for 10 days at the dose of 50 or 250 mg/kg. On the 11th day, the animals were sacrificed. The therapeutic effect was evaluated by determining the content of lipid in the liver (triglyceride and total lipid) and examining the histopathological changes. Triglyceride and total lipid were determined colorimetrically by chromotropic acid method and Bragdon's oxidation method, respectively.
Indices for the histopathological change is as follows.

[3] = Effect on glucose metabolism (blood sugar after glucose load); format: in vivo, mice; settings: for Blood Sugar: 250 mg/kg oral 6 h before glucose 4.0 g/kg
Procedure: The test compounds dissolved in olive oil and administered orally at the dose of 250 mg/kg to the mice. After 6 hours, 4.0 g/kg of glucose was orally administered. The same amount of glucose was given to the control animals. 0.02 ml of blood was taken from caudal vein of the mice at 30, 60, 90 and 120 min. after glucose administration. Blood sugar was measured by the procedure of Somogyi-Nelson. Number of animals used was 5 to 6 mice for each treatment.

[4] = test system: bile flow and biliary salt; assay: Cholagogic action: bile flow and excretion of biliary salt; format: in vivo, male rat (4 week-aged, SD-JCL strain); settings: 200 mg/kg oral; for bile flow / excretion of biliary salt: before treatment = 100
Procedure: The male rat (4 week-aged, SD-JCL strain) was anesthetized with sodium pentobarbital (37.5 mg/kg, intraperitoneal injection). The abdominal cavity was opened through a midline incision. The common bile duct was catheterized with polyethylene tube o.d. 0.8 mm. The catheter was brought to the outside through the abdominal incision wound prior to closing. Bile was collected from the catheter continuously with time intervals of one hour. The quantity of bile produced in one hour was determined by weighing and that of biliary salt was determined by enzymatic method (Ikagaku Jikkenho Koza 1B, Biological Constituents II, edited by Tamio YAMAKAWA). The amount of biliary salts was represented as cholic acid equivalent.
In the representation of the results, the quantities of bile and biliary salts produced in one hour prior to the administration of drug were taken as 100. The compound of this invention was orally administered at the dose of 200 mg/kg. As reference anethol trithion was used.

[5] = 50 mg/kg oral everyday for 10 days
[6] = 250 mg/kg oral everyday for 10 days

| Compound | p-GPT (plasma glutamic-pyruvic transaminase activity) [1] | Liver Damage Index [1] | further results |
| --- | --- | --- | --- |
| COC(=O)C(C(=O)OC(C)C)=C1SCCS1 [Compound 19, Methyl isopropyl 1,3-dithiolan-2-ylidene malonate] | 89 Karmen units | 1.0 |  |
| CCCOC(=O)C(C(=O)OCCC)=C1SCCS1 [Compound 3, Di-n-propyl 1,3-dithiolan-2-ylidene malonate] | 26 Karmen units | 1.0 |  |
| COCCOC(=O)C(C(=O)OCCOC)=C1SCCS1 [Compound 15, di(methoxyethyl) 1,3-dithiolan-2-ylidene malonate] | 85 Karmen units | 1.5 |  |
| CC(C)COC(=O)C(C(=O)OCC(C)C)=C1SCCS1 [Compound 6] | 26 Karmen units | 0.5 | Degree of fatty liver (histopathological examination) ([2]; 50 mg/kg oral): ± ± and ± ± + ±; Degree of fatty liver (histopathological examination) ([2]; 250 mg/kg oral): ± - - - ± ± |
| CCOCCOC(=O)C(C(=O)OC(C)C)=C1SCCS1 [Compound 24] | 152 Karmen units | 1.2 | Blood Sugar (percent of 0 min value) ([3]; 0 min): 100%; Blood Sugar ([3]; 0 min): 135 ± 13.2 mg/dL; Blood Sugar ([3]; 30 min): 248 ± 20.2 mg/dL; Blood Sugar ([3]; 60 min): 214 ± 18.8 mg/dL; Blood Sugar ([3]; 90 min): 173 ± 24.4 mg/dL; Blood Sugar ([3]; 120 min): 140 ± 16.3 mg/dL; Blood Sugar (percent of 0 min value) ([3]; 30 min): 184%; Blood Sugar (percent of 0 min value) ([3]; 60 min): 158%; Blood Sugar (percent of 0 min value) ([3]; 90 min): 128%; Blood Sugar (percent of 0 min value) ([3]; 120 min): 104% |
| CC(C)SC(=O)C(C(=O)SC(C)C)=C1SCCS1 [Compound 13] | 105 Karmen units | 1.4 | Degree of fatty liver (histopathological examination) ([2]; 50 mg/kg oral): ± ± and ± ± ± + ±; Degree of fatty liver (histopathological examination) ([2]; 250 mg/kg oral): - ± and - ± ± ± |
| CCC(C)OC(=O)C(C(=O)OC(C)CC)=C1SCCS1 (stereo not shown) [Compound 7] | 102 Karmen units | 1.2 |  |
| CC(C)(C)OC(=O)C(C(=O)OC(C)(C)C)=C1SCCS1 [Compound 8] | 230 Karmen units | 1.2 |  |
| CCCCSC(=O)C(C(=O)SCCCC)=C1SCCS1 [Compound 14] | 241 Karmen units | 1.4 |  |
| CCCCSC(=O)C(C(=O)OCC)=C1SCCS1 [Compound 28] | 31 Karmen units | 0.8 |  |
| CCOC(=O)C(C(=O)OC(C)C)=C1SCC[S+]1[O-] (stereo not shown) [Compound 35] | 152 Karmen units | 0.8 |  |
| CC(C)(C)OC(=O)C(C(=O)OC(C)(C)C)=C1SCC[S+]1[O-] (stereo not shown) [Compound 33] | 212 Karmen units | 1.4 |  |
| CCOCCOC(=O)C(C(=O)OCCOCC)=C1SCCS1 [Compound 16] | 150 Karmen units | 1.0 |  |
| CCOC(=O)C(C(=O)SC(C)C)=C1SCCS1 [Compound 27] | 18 Karmen units | 0.4 |  |
| COC(=O)C(C(=O)OCC(C)C)=C1SCCS1 [Compound 20] | 62 Karmen units | 0.2 | bile flow ([4]; 1 hour after treatment): 113±4.3; excretion of biliary salt ([4]; 1 hour after treatment): 104±11; bile flow ([4]; 2 hours after treatment): 112±8.2; excretion of biliary salt ([4]; 2 hours after treatment): 119±13; bile flow ([4]; 3 hours after treatment): 106±6.3; excretion of biliary salt ([4]; 3 hours after treatment): 120±17; bile flow ([4]; 4 hours after treatment): 113±8.8; excretion of biliary salt ([4]; 4 hours after treatment): 113±18; bile flow ([4]; 5 hours after treatment): 93±3.8; excretion of biliary salt ([4]; 5 hours after treatment): 82±7.3; Amount of total biliary salts excreted for 5 hours relative to control ([4]; versus control): 1.55 times; Quantity of total excreted bile for 5 hours relative to control ([4]; versus control): 1.14 times |
| CC(C)CCOC(=O)C(C(=O)OCCC(C)C)=C1SCCS1 [Compound 10] | 350 Karmen units | 3.3 |  |
| CCSC(=O)C(C(=O)SCC)=C1SCCS1 [Compound 12] | 36 Karmen units | 1.0 | Blood Sugar (percent of 0 min value) ([3]; 0 min): 100%; Blood Sugar ([3]; 0 min): 141 ± 11.3 mg/dL; Blood Sugar ([3]; 30 min): 264 ± 21.5 mg/dL; Blood Sugar ([3]; 60 min): 225 ± 17.2 mg/dL; Blood Sugar ([3]; 90 min): 167 ± 15.6 mg/dL; Blood Sugar ([3]; 120 min): 142 ± 13.2 mg/dL; Blood Sugar (percent of 0 min value) ([3]; 30 min): 187%; Blood Sugar (percent of 0 min value) ([3]; 60 min): 160%; Blood Sugar (percent of 0 min value) ([3]; 90 min): 118%; Blood Sugar (percent of 0 min value) ([3]; 120 min): 100% |
| CCCCOC(=O)C(C(=O)OCCCC)=C1SCCS1 [Compound 5] | 322 Karmen units | 3.0 |  |
| COC(=O)C(C(=O)OCC(C)C)=C1SCC[S+]1[O-] (stereo not shown) [Compound 34] | 102 Karmen units | 1.0 |  |
| COC(=O)C(C(=O)OC)=C1SCC[S+]1[O-] (stereo not shown) [Compound 29] | 222 Karmen units | 0.6 |  |
| CC(C)COC(=O)C(C(=O)OC(C)C)=C1SCCS1 [Compound 23] | 102 Karmen units | 1.0 |  |
| CSC(=O)C(C(=O)SC)=C1SCCS1 [Compound 11] | 750 Karmen units | 2.5 |  |
| CCOC(=O)C(C(=O)OC)=C1SCCS1 [Compound 18] | 240 Karmen units | 1.4 |  |
| CCOCCOC(=O)C(C(=O)OCC)=C1SCCS1 [Compound 25] | 85 Karmen units | 1.0 |  |
| CCCCOCCOC(=O)C(C(=O)OCCOCCCC)=C1SCCS1 [Compound 17] | 242 Karmen units | 3.0 |  |
| COC(=O)C(C(=O)OC)=C1SCCS1 [Compound 1] | 200 Karmen units | 2.2 |  |
| CC(C)COC(=O)C(C(=O)OCC(C)C)=C1SCC[S+]1[O-] (stereo not shown) [Compound 32] | 180 Karmen units | 1.0 | Total lipid [2, 5]: 112.4 ± 12.3 mg/g-liver; Triglyceride [2, 5]: 48.3 ± 7.6 mg/g-liver; Total lipid [2, 6]: 77.2 ± 8.7 mg/g-liver; Triglyceride [2, 6]: 26.3 ± 4.2 mg/g-liver |
| NC(=O)CCCCC1CCSS1 (stereo not shown) [Thioctic acid amide, thioctic acid amide, reference compound] | 763 Karmen units | 4.8 |  |
| CCCCCOC(=O)C(C(=O)OCCCCC)=C1SCCS1 [Compound 9] | 550 Karmen units | 3.2 |  |
| CCOCCOC(=O)C(C(=O)OC(C)C)=C1SCC[S+]1[O-] (stereo not shown) [Compound 36] | 210 Karmen units | 1.4 |  |
